Patent US11896589B2, “Diazinyl amino acridines and medical uses thereof” (MyCural Therapeutics AB, priority 2018, dated 2024)

Key:
[1] = tested on: MYCN-amplified neuroblastoma cells (SK-N-DZ, Kelly, IMR-32); experiment: Assay 5A neuroblastoma cell growth (WST-1), MYCN-amplified; type: cell-based; settings: Homo sapiens, second run
Procedure: FIG. 6: A-B) Neuroblastoma cell lines with (SK-N-DZ, Kelly and IMR-32) or without (SK-N-F1, SK-N-RA and SK-N-AS) MYCN-amplification were exposed to different concentrations of Example 1, Example 2 and control compound, respectively, for 48 hours. Cell growth and viability was estimated by measuring metabolic activity. C) Growth of TGR-1 (wt), HO15.19 (MYC knockout) and HOmyc3 (MYC reconstituted HO15.19) Rat1 fibroblasts, as measured by the WST-1 assay after treatment with Example 1. Data are shown as mean±standard deviation of 3-5 biological experiments, each with 3 technical repeats.
Assay 5A: Neuroblastoma Cell Growth
Neuroblastoma cell lines with (SK-N-DZ, Kelly and IMR-32) or without (SK-N-F1, SK-N-RA and SK-N-AS) MYCN-amplification were exposed to different concentrations of example compounds for 48 hours. Cell growth and viability was estimated by measuring metabolic activity by incubating cells in triplicates with WST-1 (Roche) in medium at 37° C. and 5% CO2 for 2 hours after which absorbance was measured with an Omega Fluostar (BMG Labtech) in a 96 well plate format.

[2] = tested on: human MYCN-amplified SK-N-DZ neuroblastoma xenograft tumors; experiment: In vivo mouse xenograft tumor model; settings: 20 mg/kg i.p. daily, 1-2 weeks
Procedure: SK-N-DZ MYCN-amplified neuroblastoma xenograft tumors reaching a volume of 100-200 mm^3 were treated with Example 1 (20 mg/kg body weight) or vehicle injected i.p. daily for 1-2 weeks. A) Apoptosis was determined by TUNEL staining of tumor tissues from mice treated with Example 1 or vehicle, counterstained with DAPI. Quantification of TUNEL staining was normalized to whole tumor areas as determined by DAPI from three Example 1- and three vehicle-treated mice. Student's t-test of Example 1 vs. vehicle; p=0.0083. B) Cell proliferation determined by Ki67 of tumor tissues from mice treated with Example 1 or vehicle, respectively, and counterstained with DAPI. Quantification of Ki67 negative areas normalized to whole tumor areas by DAPI from three Example 1- and three vehicle-treated mice. Student's t-test of Example 1 vs. vehicle; p=0.0380. C) Microvascular density visualized by CD31 staining in the red. C) Quantification of CD31 staining normalized to whole tumor areas from three Example 1- and three vehicle-treated mice. Student's t-test of Example 1 vs. vehicle; p=0.014. D) Detection of MYCN:MAX protein interaction by isPLA performed on tumor tissue from mice treated with Example 1 or vehicle using antibodies against MYCN and MAX. Quantification of MYCN:MAX isPLA signals in tumor tissue from Example 1- and vehicle-treated mice, presented as average number of dots from four randomly chosen microscopic fields from Example 1 treated mice normalized to corresponding values from vehicle-treated mice (F=28.102, P=0.008). E) Apoptosis determined from TUNEL stained tumor section derived from a MDA-MB231 xenograft mouse treated with Example 2 for 2 weeks. Quantification of apoptotic cells per counted field.
To validate the efficacy of Example 1 in tumor tissue in vivo, we utilized a mouse xenograft tumor model based on human MYCN-amplified SK-N-DZ neuroblastoma cells. Tumor cells (5×10^6) were injected into the flank of athymic nude mice and allowed to form tumors after which Example 1 or vehicle were administered by daily intraperitoneal injection at a dose of 20 mg/kg body weight for 1-2 weeks.

MYCbHLHZip = molecular target: T1, MYCbHLHZip (Homo sapiens, UniProt P01106); experiment: Assay 2A MYC binding MST assay; settings: approximately 200 nM labelled MYC, compound titrated
T1 construct: An amino coupling procedure was used to immobilize MYCbHLHZip protein on a CM5 sensor chip
Procedure: FIG. 2: A) MST assay of Example 1 effect on MYC and MAX, respectively. Recombinant MYC bHLHZip and MAX bHLHZip proteins were titrated, respectively, in a fixed concentration (3 μM) of Example 1. Changes in fluorescence were measured and normalized to control (buffer). Data are shown as mean±standard deviation of 6-8 biological repeats. B) MST assay of MYC (reverse MST). A fixed concentration of 200 nM labeled MYC was mixed with different concentrations of Example 1 as indicated. Data are shown as mean±standard deviation of 5 biological repeats. C) MST assay of Example 2 effect on MYC. D) MST assay of MYC with a control compound (non-binder).
Assay 2A. MYC Binding MST Assay
The MYC MST assay was performed as described above (Biological example 1—Assay 1A), except that the fluorescent molecule was either protein or Example 1. The example compound was kept at a fix concentration of 3 μM in PBS supplemented with 0.05% Tween-20, while MYCbHLHZip or MAX was titrated. The migration of example compound changed at MYC protein concentrations above 1 μM, but was unaffected with MAX up to highest concentration tested (15 μM) (FIG. 2A). […]

T1 sequence (P01106 368-449 limits assumed): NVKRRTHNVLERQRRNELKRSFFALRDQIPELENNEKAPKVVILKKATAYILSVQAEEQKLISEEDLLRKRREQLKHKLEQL

CCOc1ccc2nc3cc(/N=N/c4ccc(N)nc4N)ccc3c(N)c2c1 [Example 1, 3-((9-amino-7-ethoxyacridin-3-yl)diazenyl)pyridine-2,6-diamine sulphate hydrate]
GI50 [1]: 2500 nM | CD31 Decrease in microvascular density [2]: 44 % of vehicle | Ki67 Increase in Ki67-negative tumor area relative to vehicle [2]: 550% | MYCN:MAX interactions in tumors (isPLA) vs vehicle [2]: significant reduction | MYCN:MAX isPLA signal relative to vehicle [2]: 66 % of vehicle | TUNEL Increase in apoptotic tumor area relative to vehicle [2]: 1420% | apoptotic tumor areas (TUNEL) vs vehicle [2]: dramatic increase | microvascular density (CD31) vs vehicle [2]: significantly reduced | non-proliferative areas (Ki67) vs vehicle [2]: significant increase | compound concentration affecting migration of MYC (reverse MST) (MYCbHLHZip): 200 to 400 nM
